For orientation: IC50 means the concentration at which inhibition is half-maximal. Lower therefore signals greater potency in that assay.

The test deals with P. falciparum 3D7 growth, pLDH absorbance. The test can be described thus: blood-stage malaria parasite growth potency – strain 3D7, dose response (AID 2305).
`COc1ccc2nc(C)cc(Nc3ccc(Oc4ccc(Br)c5ccccc45)c(Cl)c3)c2c1`: the IC50 amounted to 0.28 µM. In other words, the sub-micromolar range. As for `COc1ccc(OCCON)cc1`, the figure is 0.2 µM; as for `CNCc1ccc(CN(C)c2nc(N)c3cc(OC)c(OC)cc3n2)cc1`, 1.03 µM; as for `COc1ccc(CC2(c3ccc(F)cc3)N=C(N)N(CCCc3cccnc3)C2=O)cc1` (stereo unspecified), 0.67 µM.

In the case of `CC(C)(CN)c1nc(-c2ccc(Cl)c(O)c2)c(-c2ccnc(N)n2)[nH]1`, the IC50 stood at 0.98 µM. `COc1ccc(NC(=O)CCNc2cc(C)nc(NCc3cccc(C)c3)n2)cc1` gave an IC50 of 1.09 µM. `O=C(NC(=O)c1ccccc1)NC1CCN(c2ccnc3cc(Cl)ccc23)C1` (stereo unspecified) showed an IC50 of 0.58 µM. The figure for `O=[N+]([O-])c1cccc(C=NNc2nc(Nc3ccccc3)nc(Nc3ccccc3)n2)c1` is 0.97 µM; for `CC1(C)N=C(N)N=C(N)N1c1ccccc1` it is 0.33 µM; for `CC(C)COc1ccc(Cl)cc1Cc1ccc(-c2nc3c(F)c(F)ccc3[nH]2)o1` it is 0.94 µM. The molecule `N#Cc1cccc(COC(=O)C2=C(COc3ccccc3Cl)NC(=O)NC2c2c[nH]c3cnccc23)c1` (stereo unspecified) yielded an IC50 of 0.79 µM. For the molecule `CC[C@H]1CN2CC[C@H]1C[C@H]2[C@H](O)c1cc(N2CCC3CCCCC3C2)nc2ccc(OC)cc12` (stereo partly specified), the IC50 was 0.17 µM. As for `O=C(Nc1ccc2c(c1)CCN2C1CCN(Cc2cccc3cc[nH]c23)C1)c1ccco1` (stereo unspecified), the figure is 1.21 µM.

As to `O=C(/C=C/c1ccc(C(F)(F)F)cc1)NCCCCCN1CCCN(C(=O)Nc2ccc(Cl)c(Cl)c2)CC1`, the IC50 was determined as 0.42 µM.

`Cc1cccc2[nH]c(-c3ccc(-c4cccc(NC(=O)Nc5ccsc5)c4)cc3)nc12` yielded an IC50 of 0.8 µM. As for `COc1cc(CNCCCCCCNCc2cc(OC)c3ccccc3c2OC)c(OC)c2ccccc12`, the figure is 0.7 µM.

Turning to `O=C(Nc1ccccc1Br)c1cn(-c2ccccc2)nc1-c1cccc([N+](=O)[O-])c1`, the IC50 came out at 1.32 µM. This IC50 lies about 1.9-fold higher than the previous one. `COC(=O)c1cccc(CNCc2ccc(-c3cccc(-c4nc5ccccc5[nH]4)c3)cc2)c1` displayed an IC50 of 0.26 µM. With `CCCCCCn1c(Sc2ccc(C#N)c([N+](=O)[O-])c2)nnc1-c1ccc(OC)cc1`, the half-maximal inhibitory concentration (IC50) amounted to 0.85 µM.

Regarding `CO/C(=C\C=C\c1cc2cc(Cl)c(Cl)cc2[nH]1)C(=O)N[C@H]1CN2CCC1CC2`, the IC50 is 1.21 µM. The IC50 values of the last two molecules are within 1.5-fold of each other. The figure for `Cc1[nH]c(C)c(-c2ccc(OCc3cc(C(F)(F)F)cc(C(F)(F)F)c3)nc2)c(=O)c1Cl` is 0.11 µM. The figure for `COc1cc(NC(=O)N2CCc3cc(OC)c(OCCN4CCCCC4)cc32)cc(C(F)(F)F)c1` is 1.15 µM; for `Cc1noc(C)c1C(=O)N1CCCC(c2[nH]c3c(C)cccc3c2-c2ccncc2)C1` (stereo unspecified) it is 0.84 µM. Consider `c1cc(CN2CCc3ccccc3CC2)cc(-c2c[nH]c3nc(NC4CCCC4)ncc23)c1`, for which the IC50 worked out at 0.8 µM. This IC50 and that of the molecule before are within 1.5-fold of each other.

`CS(=O)(=O)c1ccc(CCNCc2ccc(-c3ccc(CN(C(=O)C4CCCC4)C4CCN(Cc5ccccc5)CC4)cc3)nc2)cc1` came in with an IC50 of 0.83 µM. This IC50 and that of the molecule before are within 1.5-fold of each other. The molecule `O=c1c(NCCCN(Cc2ccc(F)cc2)c2ccccn2)c(NCc2ccncc2)c1=O` had an IC50 of 0.15 µM. In turn, `NS(=O)(=O)c1cccc(-c2ccc3c(=O)[nH]cnc3c2)c1` displayed an IC50 of 0.95 µM. Against the preceding molecule, the IC50 is about 6.3-fold higher.

As for `O=C(NCCN1CCCC1)c1ccc(-c2ccc(-c3nc4ccc(C(F)(F)F)cc4[nH]3)s2)cc1`, the half-maximal inhibitory concentration (IC50) was 0.75 µM. As for `CC(CNC(=O)c1cc2c(Cl)cc(Cl)cc2[nH]1)CNc1cc(=O)c2ccccc2[nH]1` (stereo unspecified), the figure is 0.72 µM. For `C=CCc1cc(Cc2cnc(N)nc2N)cc(CCC)c1O`, the 50% inhibitory concentration (IC50) was 0.99 µM.

The molecule `O=C(NCCNc1noc(-c2sccc2Br)n1)c1ccc(Cl)cc1` showed an IC50 of 1.17 µM. The figure for `N=c1c2c(n(Cc3cccc(Cl)c3)c3c1CCC3)CCCC2` is 0.19 µM.

For the molecule `CCC(=O)Nc1ccc(Nc2nc(C)cc(N3CCCC3)n2)cc1`, the IC50 came to 1.32 µM. The figure for `CC(C)CNCc1ccc(-c2cccc(CN(CCN(C)C)C(=O)CCC3CCCC3)c2)cc1` is 0.81 µM. The figure for `Cc1ccn2c(N(Cc3ccccc3)C(=O)c3ccc(Cl)c(Cl)c3)c(-c3ccccc3)nc2c1` is 0.99 µM; for `Cc1cnc(C(=O)Nc2cccc(-c3cccc(-c4nc5ccc(F)cc5[nH]4)c3)c2)cn1` it is 0.77 µM; for `Clc1ccc(Nc2nc(Nc3ccc(Cl)c(Cl)c3)nc(Sc3nc4ccccc4[nH]3)n2)cc1Cl` it is 0.49 µM. As for `CC1(C)N=C(N)N=C(N)N1OCCCCON1C(N)=NC(N)=NC1(C)C`, the figure is 0.07 µM; as for `CCOC(=O)c1c(NC(NC(=O)c2ccc(C(C)(C)C)cc2)C(Cl)(Cl)Cl)sc2c1CCCC2` (stereo unspecified), 0.81 µM. On to `Cc1cc(N[C@@H](Cc2ccccc2)C(=O)Nc2ccccc2)nc(NCCc2cccs2)n1`, for which the IC50 is 0.8 µM. Molecule `Cc1cc(OCCCN2CCC(NS(=O)(=O)c3ccc(C(F)(F)F)cc3)CC2)c2ccccc2n1` returned an IC50 of 1.22 µM. The figure for `NC(=O)c1cccc(Nc2nccc(Nc3ccc(Oc4cccc5ccccc45)cc3)n2)c1` is 1.15 µM; for `Nc1nc(N)c2cc(C#Cc3ccc(-c4ccccc4)cc3)ccc2n1` it is 0.81 µM; for `CC(CN(C)C)C(=O)Nc1cccc(-c2cccc(-c3nc4ccccc4[nH]3)c2)c1` (stereo unspecified) it is 1.06 µM. As for `COc1ccc(C(=C(C)CC(C)C(=O)O)c2ccccc2)cc1` (stereo unspecified), the figure is 0.84 µM. In turn, `NC(=NCc1ccccc1)Nc1nc(-c2ccc(OCCCn3ccnc3)cc2)cs1` returned an IC50 of 0.25 µM. As for `O=C(Cc1n[nH]c(=O)c2ccccc12)Nc1cccc(C(=O)Nc2cccc(C(F)(F)F)c2)c1`, the figure is 0.17 µM. Regarding `O=C(c1ccc(OCCn2ccnc2)cc1)N1CCC(c2ccc(Br)cc2)C1` (stereo unspecified), the IC50 amounted to 0.12 µM.

Molecule `Clc1ccc(-c2ccc(CNCCCN3CCCC3)cc2)cc1` yielded an IC50 of 1.06 µM. This IC50 lies about 8.8-fold higher than the previous one. As for `CC(C)=C(C(=O)OCc1ccccc1)N1C(=O)[C@@H](NC(c2ccccc2)(c2ccccc2)c2ccccc2)[C@H]1[S@@](=O)CC(=O)OC(C)(C)C`, the IC50 was found to be 1.02 µM.

The molecule `N#Cc1ccc(N2C[C@@H](OCc3ccccc3)C[C@H]2C(=O)NCCC(c2ccccc2)c2ccccc2)c2ccccc12` had an IC50 of 0.86 µM. As for `O=C(NC1CCC(N2CCC3(CC2)C(=O)NCN3c2ccccc2)CC1)c1cc2ccccc2[nH]1` (stereo unspecified), the figure is 0.68 µM. The figure for `O=C(Nc1ccc(Oc2ccccc2)cc1)N[C@@H](Cc1ccc(O)cc1)C(=O)NC1CCN(Cc2ccc(O)c([N+](=O)[O-])c2)C1` (stereo partly specified) is 1.51 µM; for `Cc1ccc(O)cc1Nc1ccnc2cc(-c3cccc(CNCCS(C)(=O)=O)c3)ccc12` it is 0.84 µM. As for `CCCCNc1nc(NCCCC)c2c(C)c(Cc3ccccc3)c(NCCCC)nc2n1`, the figure is 0.89 µM; as for `COc1cc2nc(Cl)nc(Nc3ccncc3)c2cc1OC`, 1.21 µM. As for `Cc1cccc2[nH]c(-c3cccc(-c4ccc(CNCCc5ccncc5)cc4)c3)nc12`, the 50% inhibitory concentration (IC50) was determined as 0.12 µM.

In the case of `CC(Cc1ccc(Oc2ccc(Cl)cc2)cc1)NCC(O)c1cccc(Cl)c1` (stereo unspecified), the IC50 amounted to 0.74 µM. This IC50 is about 6.2-fold higher than that of the molecule before. As for `CCOc1c(CNCCCCCCNCc2ccc3ccccc3c2OCC)ccc2ccccc12`, the IC50 amounted to 0.76 µM.

Consider `COc1cc(NC(=O)N2CCc3ccc(OCCC4CCCN4C)cc32)cc(C(F)(F)F)c1` (stereo unspecified), for which the IC50 was 0.71 µM. The figure for `O=C(/C=C/c1ccc(Cl)c(Cl)c1)NCCCCCN1CCC(NC(=O)Nc2ccc3c(c2)OCO3)CC1` is 0.71 µM; for `CCCOc1cccc(C(=O)N[C@@H](Cc2ccccc2)[C@H](O)CNCc2ccccc2OC)c1` it is 0.88 µM; for `Cc1nnsc1C(=O)Nc1ccc(-c2ccc(-c3nc4c(C)cccc4[nH]3)s2)cc1` it is 0.59 µM. As for `COc1cc(C(=O)N2CCOC(CCN3CCC[C@H]3C(=O)Nc3ccccc3)(c3ccc(Cl)c(Cl)c3)C2)cc(OC)c1OC` (stereo partly specified), the IC50 was 0.73 µM. Molecule `NC(=O)C1Cc2ccccc2CN1CC(=O)Nc1ccccc1Sc1ccccc1` (stereo unspecified) gave an IC50 of 0.07 µM.

As to `COc1ccc(CNCc2cccc(-c3ccc(-c4nc5c(C)cccc5[nH]4)s3)c2)cc1`, the IC50 amounted to 0.26 µM. This IC50 lies about 3.7-fold higher than the previous one. As for `CS(=O)(=O)c1ccc(-c2cnc(N)c(-c3ccc(O)cc3)c2)cc1`, the figure is 1.36 µM; as for `O=C(NC1CCC(CN2CCC(c3c[nH]c4ccccc34)CC2)CC1)c1cc(-c2ccccc2Cl)n(-c2cccc(Cl)c2)n1` (stereo unspecified), 0.85 µM. On to `Cc1cccc(Nc2nc3nonc3nc2Nc2cccc(Cl)c2Cl)c1C`, for which the IC50 was found to be 1.03 µM.

The molecule `Cc1cccc2[nH]c(-c3cccc(-c4cccc(NC(=O)c5cncn5C)c4)c3)nc12` displayed an IC50 of 0.17 µM. `O=C(Nc1cccc(Cl)c1)N[C@H]1CCN(Cc2ccc(OCCCN3CCCCC3)cc2)C1` gave an IC50 of 0.73 µM. This IC50 lies about 4.3-fold higher than the previous one. The figure for `CC(C)CNCc1cccc(-c2cccc(CNc3ccc4ncccc4c3)c2)c1` is 0.95 µM; for `CCOc1ccc(-c2n[nH]c(C(F)(F)F)c2-c2ccccc2OC)c(O)c1` it is 1.14 µM; for `CN1CCC=C(C(=O)NCC(C)(C)c2nc(-c3ccc(Cl)c(O)c3)c(-c3ccncc3)[nH]2)C1` it is 1 µM. The figure for `COc1ccc(Cl)cc1N1CCN(CCCNC(=O)c2ccc(-c3nc4cc(Cl)c(F)cc4[nH]3)c(F)c2)CC1` is 1.11 µM. The figure for `COc1ccc(CN2CCN(CCCCNC(=O)c3ccc(NC(=O)c4ccc(Cl)cc4)cc3)CC2)c(OC)c1` is 0.89 µM; for `O=C(/C=C/c1cc(C(F)(F)F)ccc1F)NCCCCCN1CCC(c2c[nH]c3ccccc23)CC1` it is 1.13 µM; for `N#Cc1ccc(C(=O)Nc2cccc(-c3ccc(CN4CCCC4)cc3)c2)cc1` it is 0.72 µM. `CCNc1cc(C(=O)N[C@@H](Cc2ccccc2)[C@H](O)CNC23CCC(CC2)C3)cc(N2CCCCS2(=O)=O)c1` had an IC50 of 0.03 µM. As for `COc1ccc(OC)c(-c2ccc(=O)n(CC(=O)Nc3cccc4ccccc34)n2)c1`, the figure is 0.9 µM. As for `Cc1nnsc1C(=O)Nc1cccc(-c2ccc(-c3nc4ccc(F)cc4[nH]3)cc2)c1`, the figure is 0.1 µM; as for `Cc1nc2ccc3ccc(CN(C)c4ccc(C(=O)N[C@@H](CCC(=O)O)C(=O)O)cc4)cc3c2c(=O)[nH]1`, 0.88 µM.

On to `CC(C)NCc1ccc(-c2cccc(-c3nc4ccccc4[nH]3)c2)cc1`, for which the 50% inhibitory concentration (IC50) stood at 0.23 µM. This IC50 is about 3.8-fold lower than that of the molecule before. Consider `Oc1ccc2[nH]cc(C3CCN(CCCNCc4ccc(-c5ccccc5)cc4)CC3)c2c1`, for which the IC50 turned out to be 0.72 µM.

For the molecule `CN1CCN(c2ccnc3ccc(NC(=O)Nc4ccc(-c5ccncc5)c(C#N)c4)cc23)CC1`, the IC50 was determined as 0.16 µM. Consider `COc1cccc(C=NNc2cc(C)nc3ccccc23)c1`, for which the IC50 was 0.94 µM.
